# Measured values taken from US10717733B2, “Haloallylamine indole and azaindole derivative inhibitors of lysyl oxidases and uses thereof” (PHARMAXIS LTD., priority 2016, dated 2020).
# Counter-ions that a name gives are not always drawn.
# Columns and labels:
# Assay type in all cases: biochemical
# Bovine LOX = Bovine LOX (Bos taurus (Bovine), UniProt P33072); experiment: LOX inhibition, peroxidase-coupled Amplex Red amine oxidase assay; details: 30 min preincubation at 37° C., putrescine substrate
# Text: (§1) Method to Determine the Ability of Compounds of the Invention to Inhibit LOX and LOXL1-4 from Different Sources
# Lysyl oxidase (LOX) is an extracellular copper dependent enzyme which oxidizes peptidyl lysine and hydroxylysine residues in collagen and lysine residues in elastin to produce peptidyl alpha-aminoadipic-delta-semialdehydes. […] There are five LOX family members; these are LOX, LOXL1, LOXL2, LOXL3 and LOXL4. LOX and LOXL family members can be acquired as recombinant active proteins from commercial sources, or extracted from animal tissues like bovine aorta, tendons, pig skin; or prepared from cell cultures. The inhibitory effects of the compounds of the present invention were tested against the given LOX-LOXL preparation using a high-throughput coupled colorimetric method (Holt A. and Palcic M., A peroxidase-coupled continuous absorbance plate-reader assay for flavin monoamine oxidases, copper-containing amine oxidases and related enzymes. Nat. Protoc. 2006; 1: 2498-2505). The assay was developed using either 384 or 96 well format. Briefly, in a standard 384 well plate assay 25 μL of a dilution of any of the isoenzymes and orthologues in 1.2 M urea, 50 mM sodium borate buffer (pH 8.2) were added into each well in the presence of 1 μM mofegiline and 0.5 mM pargyline (to inhibit SSAO and MAO-B and MAO-A, respectively). […] of a reaction mixture containing twice the KM concentration of putrescine (Sigma Aldrich, e.g. 20 mM for LOX, or 10 mM for LOXL2 and LOXL3), 120 μM Amplex Red (Sigma Aldrich) and 1.5 U/mL horseradish peroxidase (Sigma Aldrich) prepared in 1.2 M urea, 50 mM sodium borate buffer (pH 8.2) were then added to the corresponding wells. The above volumes were doubled in the case of 96 wells plate. The fluorescence (RFU) was read every 2.5 min for 30 min at a range of temperatures from 37° to 45° C., excitation 565 nm and emission 590 (Optima; BMG labtech). The slope of the kinetics for each well was calculated using MARS data analysis software (BMG labtech) and this value was used to deduce the IC50 value (Dotmatics).
# Human LOXL2 = Human LOXL2 (Homo sapiens (Human), UniProt Q9Y4K0); experiment: LOXL2 inhibition, peroxidase-coupled Amplex Red amine oxidase assay; details: 30 min preincubation at 37° C., putrescine substrate
# Text: as §1
# Lysyl oxidase (LOX) is an extracellular copper dependent enzyme which oxidizes peptidyl lysine and hydroxylysine residues in collagen and lysine residues in elastin to produce peptidyl alpha-aminoadipic-delta-semialdehydes. […] There are five LOX family members; these are LOX, LOXL1, LOXL2, LOXL3 and LOXL4. LOX and LOXL family members can be acquired as recombinant active proteins from commercial sources, or extracted from animal tissues like bovine aorta, tendons, pig skin; or prepared from cell cultures. The inhibitory effects of the compounds of the present invention were tested against the given LOX-LOXL preparation using a high-throughput coupled colorimetric method (Holt A. and Palcic M., A peroxidase-coupled continuous absorbance plate-reader assay for flavin monoamine oxidases, copper-containing amine oxidases and related enzymes. Nat. Protoc. 2006; 1: 2498-2505). The assay was developed using either 384 or 96 well format. Briefly, in a standard 384 well plate assay 25 μL of a dilution of any of the isoenzymes and orthologues in 1.2 M urea, 50 mM sodium borate buffer (pH 8.2) were added into each well in the presence of 1 μM mofegiline and 0.5 mM pargyline (to inhibit SSAO and MAO-B and MAO-A, respectively). Test compounds were dissolved in DMSO and tested in a Concentration Response Curve (CRC) with 11 data points, typically in the micromolar or nanomolar range after incubation with the enzyme for 30 min at 37° C. Twenty five L of a reaction mixture containing twice the KM concentration of putrescine (Sigma Aldrich, e.g. 20 mM for LOX, or 10 mM for LOXL2 and LOXL3), 120 μM Amplex Red (Sigma Aldrich) and 1.5 U/mL horseradish peroxidase (Sigma Aldrich) prepared in 1.2 M urea, 50 mM sodium borate buffer (pH 8.2) were then added to the corresponding wells. The above volumes were doubled in the case of 96 wells plate. The fluorescence (RFU) was read every 2.5 min for 30 min at a range of temperatures from 37° to 45° C., excitation 565 nm and emission 590 (Optima; BMG labtech). The slope of the kinetics for each well was calculated using MARS data analysis software (BMG labtech) and this value was used to deduce the IC50 value (Dotmatics).
# [1] = molecular target: human recombinant SSAO/VAP-1 (Homo sapiens (Human), UniProt Q16853); experiment: Inhibition of human recombinant SSAO/VAP-1 amine oxidase activity; details: 30 min preincubation at 37° C., 600 μM benzylamine
# Description: Method to Determine the Ability of Compounds of Formula I to Inhibit Human Recombinant SSAO/VAP-1
# Human recombinant SSAO/VAP-1 amine oxidase activity was determined using the coupled colorimetric method as described for monoamine oxidase, copper-containing amine oxidases and related enzymes (Holt A. and Palcic M., A peroxidase-coupled continuous absorbance plate-reader assay for flavin monoamine oxidases, copper-containing amine oxidases and related enzymes. Nat Protoc 2006; 1: 2498-2505). Briefly, a cloned cDNA template corresponding to residues 34-763 of human SSAO/VAP-1, and incorporating a mouse Ig kappa (κ) signal sequence, N-terminal flag epitope tag and tobacco etch virus (TEV) cleavage site, was assembled in a mammalian expression vector (pLO-CMV) by Geneart AG. This vector containing human SSAO/VAP-1 residues was transfected into CHO-K1 glycosylation mutant cell line, Lec 8. A clone stably expressing human SSAO/VAP-1 was isolated and cultured in large scale. Active human SSAO/VAP-1 was purified and recovered using immunoaffinity chromatography. This was used as the source for SSAO/VAP-1 activity. A high-throughput colorimetric assay was developed using either 96 or 384 well format. Briefly, in a standard 96 well plate assay 50 μL of purified human SSAO/VAP-1 (0.25 μg/mL) in 0.1 M sodium phosphate buffer (pH 7.4) was added into each well. Test compounds were dissolved in DMSO and tested in a Concentration Response Curve (CRC) with 4-11 data points, typically in the micromolar or nanomolar range after incubation with human SSAO/VAP-1 for 30 min at 37° C. After 30 min incubation, 50 μL of the reaction mixture containing 600 μM benzylamine (Sigma Aldrich), 120 μM Amplex Red (Sigma Aldrich) and 1.5 U/mL horseradish peroxidase (Sigma Aldrich) prepared in 0.1 M sodium phosphate buffer (pH 7.4) were added to the corresponding well. The fluorescence unit (RFU) was read every 2.5 min for 30 min at 37° C. excitation 565 nm and emission 590 (Optima; BMG labtech). The slope of the kinetics for each well was calculated using MARS data analysis software (BMG labtech) and this value was used to deduce the IC50 value (Dotmatics).
# Recombinant human MAO-B = Recombinant human MAO-B (Homo sapiens (Human), UniProt P27338); experiment: Inhibition of human recombinant MAO-B; details: benzylamine 100 μM
# Description: Method to Determine the Ability of Compounds of Formula I to Inhibit Human Recombinant MAO-B
# The specificity of the compounds of this invention was tested by determining their ability to inhibit MAO-B activities in vitro. Recombinant human MAO-B (0.06 mg/mL; Sigma Aldrich) was used as source of MAO-B enzyme activities. The assay was performed in a similar way as for human SSAO/VAP-1 (Example 66) except, the substrate benzylamine was used at 100 μM.
# Chain of Bovine LOX (P33072 170-418): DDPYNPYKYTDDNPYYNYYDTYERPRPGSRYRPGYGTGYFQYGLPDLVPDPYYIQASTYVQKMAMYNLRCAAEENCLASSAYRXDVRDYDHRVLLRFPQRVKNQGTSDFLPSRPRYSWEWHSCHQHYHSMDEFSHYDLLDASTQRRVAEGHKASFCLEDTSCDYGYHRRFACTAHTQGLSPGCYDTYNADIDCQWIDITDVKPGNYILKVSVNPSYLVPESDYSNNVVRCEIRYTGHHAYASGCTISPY
# Chain of Human LOXL2 (Q9Y4K0 26-774): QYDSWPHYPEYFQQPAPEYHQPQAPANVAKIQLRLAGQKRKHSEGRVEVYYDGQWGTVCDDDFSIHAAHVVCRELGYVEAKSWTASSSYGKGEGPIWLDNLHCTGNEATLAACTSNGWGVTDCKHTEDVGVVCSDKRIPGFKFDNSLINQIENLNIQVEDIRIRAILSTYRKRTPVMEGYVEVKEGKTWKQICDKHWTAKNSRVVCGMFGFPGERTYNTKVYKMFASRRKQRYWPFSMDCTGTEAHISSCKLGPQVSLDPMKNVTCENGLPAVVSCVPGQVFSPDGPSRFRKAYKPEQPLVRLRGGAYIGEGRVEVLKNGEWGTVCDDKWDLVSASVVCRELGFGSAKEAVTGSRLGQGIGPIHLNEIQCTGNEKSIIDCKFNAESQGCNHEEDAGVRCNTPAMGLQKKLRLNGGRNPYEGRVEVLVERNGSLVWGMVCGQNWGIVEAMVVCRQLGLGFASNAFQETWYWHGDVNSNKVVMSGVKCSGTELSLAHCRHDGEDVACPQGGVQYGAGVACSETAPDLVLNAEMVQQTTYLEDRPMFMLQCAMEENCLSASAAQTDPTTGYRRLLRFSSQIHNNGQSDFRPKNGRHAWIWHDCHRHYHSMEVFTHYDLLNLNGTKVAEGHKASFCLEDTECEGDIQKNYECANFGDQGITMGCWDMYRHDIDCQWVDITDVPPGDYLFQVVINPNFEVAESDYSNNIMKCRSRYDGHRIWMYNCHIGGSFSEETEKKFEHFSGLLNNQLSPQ
# Chain of Recombinant human MAO-B (P27338 whole entry): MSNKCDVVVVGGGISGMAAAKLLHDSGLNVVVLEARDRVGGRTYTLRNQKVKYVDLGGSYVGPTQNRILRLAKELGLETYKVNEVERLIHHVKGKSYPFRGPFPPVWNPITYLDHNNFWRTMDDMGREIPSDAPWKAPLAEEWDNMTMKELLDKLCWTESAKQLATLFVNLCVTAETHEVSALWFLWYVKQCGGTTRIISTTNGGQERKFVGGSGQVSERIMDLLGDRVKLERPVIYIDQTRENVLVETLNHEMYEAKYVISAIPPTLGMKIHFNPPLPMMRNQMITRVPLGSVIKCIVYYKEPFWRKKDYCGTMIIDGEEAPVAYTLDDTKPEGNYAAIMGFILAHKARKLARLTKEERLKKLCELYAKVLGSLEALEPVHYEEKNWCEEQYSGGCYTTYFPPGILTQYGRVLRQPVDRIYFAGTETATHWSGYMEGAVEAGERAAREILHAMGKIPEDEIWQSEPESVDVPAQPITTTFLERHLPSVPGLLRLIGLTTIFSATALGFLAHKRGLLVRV
# Chain of human recombinant SSAO/VAP-1 (Q16853 34-763): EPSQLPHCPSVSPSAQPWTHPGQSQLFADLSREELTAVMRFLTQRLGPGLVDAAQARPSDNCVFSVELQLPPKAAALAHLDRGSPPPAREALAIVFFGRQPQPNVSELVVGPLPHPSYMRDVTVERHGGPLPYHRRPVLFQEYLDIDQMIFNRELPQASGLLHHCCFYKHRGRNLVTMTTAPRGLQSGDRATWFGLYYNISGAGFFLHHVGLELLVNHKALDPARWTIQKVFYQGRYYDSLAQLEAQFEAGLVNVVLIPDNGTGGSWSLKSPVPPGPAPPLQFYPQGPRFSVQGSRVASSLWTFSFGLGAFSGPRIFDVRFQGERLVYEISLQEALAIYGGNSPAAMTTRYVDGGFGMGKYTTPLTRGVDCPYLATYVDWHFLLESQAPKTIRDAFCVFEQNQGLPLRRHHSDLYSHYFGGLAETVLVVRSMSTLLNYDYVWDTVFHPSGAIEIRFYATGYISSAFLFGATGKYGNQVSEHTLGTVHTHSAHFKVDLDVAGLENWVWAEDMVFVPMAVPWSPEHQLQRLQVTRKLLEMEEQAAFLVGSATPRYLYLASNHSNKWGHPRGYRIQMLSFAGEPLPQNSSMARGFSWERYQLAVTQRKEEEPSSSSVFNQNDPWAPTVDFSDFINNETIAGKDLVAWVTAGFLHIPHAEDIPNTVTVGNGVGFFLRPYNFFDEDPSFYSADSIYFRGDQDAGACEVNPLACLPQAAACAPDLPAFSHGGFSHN
Structure (SMILES),IC50 (Bovine LOX) [nM],IC50 (Human LOXL2) [nM],IC50 [1] [nM],IC50 (Recombinant human MAO-B) [nM]
"Cc1c(-c2cccc(S(=O)(=O)N(C)C)c2)c2cc(C#N)ccc2n1C/C(F)=C/CN [Compound 51, (Z)-3-(1-(4-amino-2-fluorobut-2-en-1-yl)-5-cyano-2-methyl-1H-indol-3-yl)-N,N-dimethylbenzenesulfonamide]",> 300,< 300,> 3000,> 3000
"Cc1c(-c2cccc(S(=O)(=O)N(C)C)c2)c2cc(O)ccc2n1C/C(F)=C/CN [Compound 37, (Z)-3-(1-(4-amino-2-fluorobut-2-en-1-yl)-5-hydroxy-2-methyl-1H-indol-3-yl)-N,N-dimethylbenzenesulfonamide]",> 300,< 300,> 3000,> 3000
"Cc1c(-c2cccnc2)c2cc(Cl)ccc2n1C/C(F)=C/CN [Compound 77, (Z)-4-(5-chloro-2-methyl-3-(pyridin-3-yl)-1H-indol-1-yl)-3-fluorobut-2-en-1-amine]",> 300,< 300,> 3000,> 3000
"Cc1c(-c2cccc(S(=O)(=O)N(C)C)c2)c2cc(Cl)ccc2n1C/C(F)=C/CN [Compound 62, (Z)-3-(1-(4-amino-2-fluorobut-2-en-1-yl)-5-chloro-2-methyl-1H-indol-3-yl)-N,N-dimethylbenzenesulfonamide]",> 300,< 300,> 3000,> 3000
"CCOC(=O)c1ccc2c(n1)c(-c1cccc(S(=O)(=O)N(C)C)c1)c(C)n2C/C(F)=C/CN [Compound 42, (Z)-ethyl 1-(4-amino-2-fluorobut-2-en-1-yl)-3-(3-(N,N-dimethylsulfamoyl)phenyl-2-methyl-1H-pyrrolo[3,2-b]pyridine-5-carboxylate, Dihydrochloride]",> 300,< 300,> 3000,> 3000
"Cc1c(-c2cccc(C(F)(F)F)c2)c2cc(C(=O)N(C)C)ccc2n1C/C(F)=C/CN [Compound 56, (Z)-1-(4-amino-2-fluorobut-2-en-1-yl)-N,N,2-trimethyl-3-(3-(trifluoromethyl)phenyl)-1H-indole-5-carboxamide]",> 300,< 300,> 3000,> 3000
"Cc1c(-c2cncc(S(=O)(=O)N(C)C)c2)c2cc(OC(F)(F)F)ccc2n1C/C(F)=C/CN [Compound 85, (Z)-5-(1-(4-amino-2-fluorobut-2-en-1-yl)-2-methyl-5-(trifluoromethoxy)-1H-indol-3-yl)-N,N-dimethyl-pyridine-3-sulfonamide Dihydrochloride]",> 300,< 300,> 3000,> 3000
"Cc1c(-c2cccc(S(=O)(=O)N(C)C)c2)c2cc(-c3nn[nH]n3)ccc2n1C/C(F)=C/CN [Compound 29, (Z)-3-(1-(4-amino-2-fluorobut-2-en-l-yl)-2-methyl-5-(2H-tetrazol-5-yl)-1H-indol-3-yl)-N,N-dimethylbenzenesulfonamide, Hydrochloride]",> 300,< 300,> 3000,> 3000
"Cc1c(-c2cccc(S(C)(=O)=O)c2)c2cc(C(=O)O)ccc2n1C/C(F)=C/CN [Compound 14, (Z)-1-(4-amino-2-fluorobut-2-en-1-yl)-2-methyl-3-(3-(methylsulfonyl)phenyl)-1H-indole-5-carboxylic acid]",> 300,< 300,> 3000,> 3000
"CCS(=O)(=O)c1cccc(-c2c(C)n(C/C(F)=C/CN)c3ccc(C)nc23)c1 [Compound 114, (Z)-4-(3-(3-(ethylsulfonyl)phenyl)-2,5-dimethyl-1H-pyrrolo[3,2-b]pyridin-1-yl)-3-fluorobut-2-en-1-amine Dihydrochloride]",> 300,< 300,–,–
"Cc1c(-c2cccc(S(=O)(=O)C(C)C)c2)c2nc(C(C)(C)O)ccc2n1C/C(F)=C/CN [Compound 117, (Z)-2-(1-(4-amino-2-fluorobut-2-en-1-yl)-3-(3-(isopropylsulfonyl)phenyl)-2-methyl-1H-pyrrolo[3,2-b]pyridin-5-yl)propan-2-ol Dihydrochloride]",> 300,< 300,–,–
"Cc1c(-c2cccc(S(C)(=O)=O)c2)c2nc(C(C)(C)O)ccc2n1C/C(F)=C/CN [Compound 116, (Z)-2-(1-(4-amino-2-fluorobut-2-en-1-yl)-2-methyl-3-(3-(methylsulfonyl)phenyl)-1H-pyrrolo[3,2-b]pyridin-5-yl)propan-2-ol Dihydrochloride]",> 300,< 300,–,–
"CCS(=O)(=O)c1cccc(-c2c(C(C)C)n(C/C(F)=C/CN)c3ccc(C)nc23)c1 [Compound 113, (Z)-4-(3-(3-(ethylsulfonyl)phenyl)-2-isopropyl-5-methyl-1H-pyrrolo[3,2-b]pyridin-1-yl)-3-fluorobut-2-en-1-amine Dihydrochloride]",> 300,< 300,–,–
"Cc1c(-c2cccc(S(C)(=O)=O)c2)c2nc(CF)ccc2n1C/C(F)=C/CN [Compound 115, (Z)-3-fluoro-4-(5-(fluoromethyl)-2-methyl-3-(3-(methylsulfonyl)phenyl)-1H-pyrrolo[3,2-b]pyridin-1-yl)but-2-en-1-amine Dihydrochloride]",> 300,< 300,–,–
